# Measurements: patent US11746116B2, “Antibiotic resistance breakers” (KING'S COLLEGE LONDON, priority 2017, dated 2023)
# What was measured:
# [1] = target: Safetyscreen44 off target panel (Homo sapiens, UniProt P06239)
# [2] = target: Safetyscreen44 off target panel (Homo sapiens, UniProt P07550)
# [3] = target: Safetyscreen44 off target panel (Homo sapiens, UniProt P10275)
# [4] = target: Safetyscreen44 off target panel (Homo sapiens, UniProt P11229)
# [5] = target: Safetyscreen44 off target panel (Homo sapiens, UniProt P20309)
# [6] = target: Safetyscreen44 off target panel (Homo sapiens, UniProt P21554)
# [7] = target: Safetyscreen44 off target panel (Homo sapiens, UniProt P22303)
# [8] = target: Safetyscreen44 off target panel (Homo sapiens, UniProt P23975)
# [9] = target: Safetyscreen44 off target panel (Homo sapiens, UniProt P28223)
# [10] = target: Safetyscreen44 off target panel (Homo sapiens, UniProt P29274)
# [11] = target: Safetyscreen44 off target panel (Homo sapiens, UniProt P32238)
# [12] = target: Safetyscreen44 off target panel (Homo sapiens, UniProt P35354)
# [13] = target: Safetyscreen44 off target panel (Homo sapiens, UniProt P35372)
# [14] = target: Safetyscreen44 off target panel (Homo sapiens, UniProt P37288)
# [15] = target: Safetyscreen44 off target panel (Homo sapiens, UniProt P41595)
# [16] = target: Safetyscreen44 off target panel (Homo sapiens, UniProt P46098)
# [17] = target: Safetyscreen44 off target panel (Homo sapiens, UniProt Q01959)
# [18] = target: Safetyscreen44 off target panel (Rattus norvegicus, UniProt P21396)
# [19] = target: Safetyscreen44 off target panel (Rattus norvegicus, UniProt P28564)
# [20] = target: Safetyscreen44 off target panel (Rattus norvegicus, UniProt P34975)
# [21] = system: Safetyscreen44 off target panel
# [22] = target: Safetyscreen44 off target panel (Homo sapiens, UniProt Q12809); test: Safetyscreen44, potential off target toxicity (Table 27)
# [23] = system: M6; test: MIC, microdilution broth method; type: cell-based
# [24] = system: AYE; test: MIC, microdilution broth method; type: cell-based, Acinetobacter baumannii
# [25] = ESKAPE panel, Gram-negative, in µg/mL
# Chain of Safetyscreen44 off target panel (Rattus norvegicus, UniProt P28564) (P28564 whole entry): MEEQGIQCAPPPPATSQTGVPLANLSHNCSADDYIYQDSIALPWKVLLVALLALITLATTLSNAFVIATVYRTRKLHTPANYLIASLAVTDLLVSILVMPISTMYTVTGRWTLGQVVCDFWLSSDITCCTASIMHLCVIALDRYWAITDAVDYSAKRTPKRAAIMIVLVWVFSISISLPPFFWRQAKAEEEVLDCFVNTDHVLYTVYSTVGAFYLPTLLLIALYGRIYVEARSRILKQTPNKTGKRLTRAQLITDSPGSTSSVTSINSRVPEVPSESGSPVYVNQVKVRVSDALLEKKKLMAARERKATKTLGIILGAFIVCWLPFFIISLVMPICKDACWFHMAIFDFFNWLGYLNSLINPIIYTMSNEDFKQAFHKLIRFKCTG
# Chain of Safetyscreen44 off target panel (Homo sapiens, UniProt P37288) (P37288 whole entry): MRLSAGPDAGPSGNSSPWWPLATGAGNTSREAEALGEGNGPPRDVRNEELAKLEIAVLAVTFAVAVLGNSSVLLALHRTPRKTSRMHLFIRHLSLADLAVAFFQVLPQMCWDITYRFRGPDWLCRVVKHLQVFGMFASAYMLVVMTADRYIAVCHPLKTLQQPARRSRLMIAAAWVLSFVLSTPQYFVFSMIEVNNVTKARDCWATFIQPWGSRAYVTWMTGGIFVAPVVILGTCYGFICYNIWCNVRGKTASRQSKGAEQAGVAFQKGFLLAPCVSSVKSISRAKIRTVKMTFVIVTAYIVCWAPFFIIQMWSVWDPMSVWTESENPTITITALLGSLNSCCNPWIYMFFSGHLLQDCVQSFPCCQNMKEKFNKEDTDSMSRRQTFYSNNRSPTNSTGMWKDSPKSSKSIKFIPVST
# Chain of Safetyscreen44 off target panel (Homo sapiens, UniProt P35354) (P35354 18-604): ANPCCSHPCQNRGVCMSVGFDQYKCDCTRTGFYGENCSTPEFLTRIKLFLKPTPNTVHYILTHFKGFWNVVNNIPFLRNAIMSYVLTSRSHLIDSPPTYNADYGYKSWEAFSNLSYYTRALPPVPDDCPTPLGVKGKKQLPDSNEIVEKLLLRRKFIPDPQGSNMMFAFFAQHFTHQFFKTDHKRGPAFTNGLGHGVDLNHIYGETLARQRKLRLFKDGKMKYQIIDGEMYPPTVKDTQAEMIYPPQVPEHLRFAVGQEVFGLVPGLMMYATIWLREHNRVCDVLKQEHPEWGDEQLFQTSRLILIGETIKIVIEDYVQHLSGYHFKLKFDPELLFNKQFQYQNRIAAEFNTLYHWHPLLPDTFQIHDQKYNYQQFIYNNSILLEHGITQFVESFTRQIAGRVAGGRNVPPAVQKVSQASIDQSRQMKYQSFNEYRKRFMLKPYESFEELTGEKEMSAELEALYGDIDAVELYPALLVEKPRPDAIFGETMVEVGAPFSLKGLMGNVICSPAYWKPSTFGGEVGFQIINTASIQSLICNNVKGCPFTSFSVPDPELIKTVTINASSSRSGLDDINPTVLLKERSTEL
# Chain of Safetyscreen44 off target panel (Rattus norvegicus, UniProt P21396) (P21396 whole entry): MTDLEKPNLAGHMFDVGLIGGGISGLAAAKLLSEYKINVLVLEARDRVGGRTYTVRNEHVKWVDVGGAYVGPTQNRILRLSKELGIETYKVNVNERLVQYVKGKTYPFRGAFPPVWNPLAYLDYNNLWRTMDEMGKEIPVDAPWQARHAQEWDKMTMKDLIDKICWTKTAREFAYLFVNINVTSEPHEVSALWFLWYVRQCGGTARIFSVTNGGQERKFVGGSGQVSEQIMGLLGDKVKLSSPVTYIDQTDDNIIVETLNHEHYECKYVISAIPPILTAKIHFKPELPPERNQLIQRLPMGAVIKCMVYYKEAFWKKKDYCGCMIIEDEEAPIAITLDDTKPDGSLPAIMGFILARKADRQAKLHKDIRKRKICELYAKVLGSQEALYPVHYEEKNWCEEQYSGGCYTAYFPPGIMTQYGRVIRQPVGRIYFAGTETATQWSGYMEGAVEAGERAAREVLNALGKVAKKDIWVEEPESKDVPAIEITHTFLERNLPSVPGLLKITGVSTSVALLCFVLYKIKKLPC
# Chain of Safetyscreen44 off target panel (Rattus norvegicus, UniProt P34975) (P34975 whole entry): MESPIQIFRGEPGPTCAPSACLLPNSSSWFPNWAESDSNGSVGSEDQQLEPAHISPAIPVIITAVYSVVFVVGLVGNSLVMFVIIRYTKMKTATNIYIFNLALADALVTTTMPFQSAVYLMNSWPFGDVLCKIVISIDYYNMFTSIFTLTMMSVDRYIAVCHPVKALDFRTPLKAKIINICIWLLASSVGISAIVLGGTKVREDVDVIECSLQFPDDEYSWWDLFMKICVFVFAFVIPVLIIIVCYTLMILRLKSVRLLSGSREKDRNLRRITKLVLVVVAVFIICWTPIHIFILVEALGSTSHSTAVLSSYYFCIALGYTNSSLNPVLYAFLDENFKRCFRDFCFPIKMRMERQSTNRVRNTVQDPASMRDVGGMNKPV
# Chain of Safetyscreen44 off target panel (Homo sapiens, UniProt Q01959) (Q01959 whole entry): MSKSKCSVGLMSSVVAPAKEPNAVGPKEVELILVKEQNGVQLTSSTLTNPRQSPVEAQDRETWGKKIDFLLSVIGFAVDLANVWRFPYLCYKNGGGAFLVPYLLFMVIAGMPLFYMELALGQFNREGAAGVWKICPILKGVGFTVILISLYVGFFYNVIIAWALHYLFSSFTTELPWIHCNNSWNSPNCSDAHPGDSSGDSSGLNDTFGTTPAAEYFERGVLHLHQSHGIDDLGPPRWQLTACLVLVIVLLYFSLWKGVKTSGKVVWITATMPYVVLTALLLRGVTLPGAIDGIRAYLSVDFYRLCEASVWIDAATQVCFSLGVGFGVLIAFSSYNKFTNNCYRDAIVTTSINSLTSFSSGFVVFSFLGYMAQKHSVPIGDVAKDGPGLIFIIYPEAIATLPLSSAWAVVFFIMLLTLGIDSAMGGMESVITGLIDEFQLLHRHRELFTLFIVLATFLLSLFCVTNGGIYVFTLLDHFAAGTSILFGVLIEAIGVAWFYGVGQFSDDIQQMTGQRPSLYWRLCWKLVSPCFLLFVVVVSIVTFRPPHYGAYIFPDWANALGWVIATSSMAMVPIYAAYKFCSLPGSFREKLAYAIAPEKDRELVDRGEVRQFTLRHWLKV
# Chain of Safetyscreen44 off target panel (Homo sapiens, UniProt P22303) (P22303 32-614): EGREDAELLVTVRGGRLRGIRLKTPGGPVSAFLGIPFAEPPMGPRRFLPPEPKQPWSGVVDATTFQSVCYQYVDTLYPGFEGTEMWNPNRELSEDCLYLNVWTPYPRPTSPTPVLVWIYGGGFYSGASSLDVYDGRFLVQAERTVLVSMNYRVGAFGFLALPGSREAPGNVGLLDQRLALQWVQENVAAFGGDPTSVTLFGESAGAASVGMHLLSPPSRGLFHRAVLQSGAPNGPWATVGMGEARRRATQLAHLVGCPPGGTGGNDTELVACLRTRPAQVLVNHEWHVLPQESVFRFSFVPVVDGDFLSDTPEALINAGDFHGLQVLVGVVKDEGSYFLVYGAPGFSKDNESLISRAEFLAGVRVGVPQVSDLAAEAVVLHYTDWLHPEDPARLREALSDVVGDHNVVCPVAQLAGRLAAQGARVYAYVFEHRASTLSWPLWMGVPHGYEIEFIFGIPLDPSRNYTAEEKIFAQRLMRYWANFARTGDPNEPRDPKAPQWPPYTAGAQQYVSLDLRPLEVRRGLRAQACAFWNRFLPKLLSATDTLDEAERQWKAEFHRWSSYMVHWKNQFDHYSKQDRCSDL
# Chain of Safetyscreen44 off target panel (Homo sapiens, UniProt P28223) (P28223 whole entry): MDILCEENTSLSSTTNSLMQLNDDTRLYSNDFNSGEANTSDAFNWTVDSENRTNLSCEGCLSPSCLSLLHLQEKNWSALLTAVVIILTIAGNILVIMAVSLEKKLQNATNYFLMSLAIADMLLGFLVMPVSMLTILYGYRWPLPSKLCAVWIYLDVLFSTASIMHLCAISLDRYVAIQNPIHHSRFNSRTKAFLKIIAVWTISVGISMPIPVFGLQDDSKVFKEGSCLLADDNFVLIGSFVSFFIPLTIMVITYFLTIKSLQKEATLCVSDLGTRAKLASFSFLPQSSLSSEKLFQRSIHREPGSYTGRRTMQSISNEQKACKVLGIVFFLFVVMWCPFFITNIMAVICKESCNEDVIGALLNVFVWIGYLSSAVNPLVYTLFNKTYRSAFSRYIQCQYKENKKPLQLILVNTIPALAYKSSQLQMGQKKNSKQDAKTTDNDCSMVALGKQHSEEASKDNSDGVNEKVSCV
# Chain of Safetyscreen44 off target panel (Homo sapiens, UniProt P11229) (P11229 whole entry): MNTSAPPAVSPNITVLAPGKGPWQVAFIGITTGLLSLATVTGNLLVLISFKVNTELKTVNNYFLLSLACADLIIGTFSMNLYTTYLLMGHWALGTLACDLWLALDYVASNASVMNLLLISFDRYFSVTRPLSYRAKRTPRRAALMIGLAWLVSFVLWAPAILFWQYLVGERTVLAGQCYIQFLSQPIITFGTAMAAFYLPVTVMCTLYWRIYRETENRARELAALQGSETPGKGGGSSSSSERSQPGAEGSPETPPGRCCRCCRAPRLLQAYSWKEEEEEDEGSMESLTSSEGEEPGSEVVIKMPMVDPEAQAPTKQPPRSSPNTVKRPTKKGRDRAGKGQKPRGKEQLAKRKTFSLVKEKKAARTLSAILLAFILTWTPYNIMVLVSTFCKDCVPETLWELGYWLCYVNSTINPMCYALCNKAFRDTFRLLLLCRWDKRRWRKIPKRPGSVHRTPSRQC
# Chain of Safetyscreen44 off target panel (Homo sapiens, UniProt P29274) (P29274 whole entry): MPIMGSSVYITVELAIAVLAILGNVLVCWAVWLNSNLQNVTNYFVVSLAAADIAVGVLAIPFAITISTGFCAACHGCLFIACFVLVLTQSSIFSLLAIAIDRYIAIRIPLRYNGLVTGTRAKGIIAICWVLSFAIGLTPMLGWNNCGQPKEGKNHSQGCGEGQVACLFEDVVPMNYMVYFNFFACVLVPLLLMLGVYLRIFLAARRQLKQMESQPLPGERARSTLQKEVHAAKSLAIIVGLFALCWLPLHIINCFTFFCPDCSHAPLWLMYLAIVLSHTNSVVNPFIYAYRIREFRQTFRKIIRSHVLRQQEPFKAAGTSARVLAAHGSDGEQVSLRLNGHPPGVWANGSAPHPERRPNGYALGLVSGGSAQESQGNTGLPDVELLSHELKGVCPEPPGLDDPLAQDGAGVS
structure (smiles),measurement,setting,value
C[C@H]1COc2c(N3CC[C@@H](Nc4ncccn4)C3)c(F)cc3c(=O)c(C(=O)O)cn1c23 [KSN-82-L22],"% inhibition, Lck kinase (h)",[1],−2.891%
same,"% inhibition, beta 2 (h) (antagonist radioligand)",[2],11.3086%
same,"% inhibition, AR (h) (agonist radioligand)",[3],4.241%
same,"% inhibition, M1 (h) (antagonist radioligand)",[4],3.129%
same,"% inhibition, M3 (h) (antagonist radioligand)",[5],2.273%
same,"% inhibition, CB1 (h) (agonist radioligand)",[6],1.857%
same,"% inhibition, acetylcholinesterase (h)",[7],32.9861%
same,"% inhibition, norepinephrine transporter (h) (antagonist radioligand)",[8],−6.471%
same,"% inhibition, 5-HT2A (h) (agonist radioligand)",[9],−8.881%
same,"% inhibition, A2A (h) (agonist radioligand)",[10],53.628%
same,"% inhibition, CCK1 (CCKA) (h) (agonist radioligand)",[11],−2.038%
same,"% inhibition, COX2(h)",[12],8.111%
same,"% inhibition, mu (MOP) (h) (agonist radioligand)",[13],6.535%
same,"% inhibition, V1a (h) (agonist radioligand)",[14],−12.5662%
same,"% inhibition, 5-HT2B (h) (agonist radioligand)",[15],5.374%
same,"% inhibition, 5-HT3 (h) (antagonist radioligand)",[16],−4.708%
same,"% inhibition, dopamine transporter (h) (antagonist radioligand)",[17],10.0257%
same,"% inhibition, MAO-A (antagonist radioligand)",[18],−9.13%
same,"% inhibition, 5-HT1B (antagonist radioligand)",[19],−16.7063%
same,"% inhibition, kappa (KOP) (agonist radioligand)",[20],27.3513%
same,"% inhibition, BZD (central) (agonist radioligand)",[21],−44.8289%
same,"% inhibition, Ca2+ channel (L, dihydropyridine site) (antagonist radioligand)",[21],6.049%
same,"% inhibition, D2S (h) (agonist radioligand)",[21],−7.807%
same,"% inhibition, NMDA (antagonist radioligand)",[21],12.6124%
same,"% inhibition, Na+ channel (site 2) (antagonist radioligand)",[21],23.6539%
same,"% inhibition, PDE4D2 (h)",[21],14.8003%
same,"% inhibition, alpha 1A (h) (antagonist radioligand)",[21],11.5312%
same,"% inhibition, Potassium Channel hERG (human)-[3H] Dofetilide",[22],−0.2461%
"Cc1cc(C)nc(N[C@@H]2CCN(c3c(F)cc4c(=O)c(C(=O)O)cn5c4c3OC[C@@H]5C)C2)n1 [KSN-BL7, (S)-10-((R)-3-((4,6-dimethylpyrimidin-2-yl)amino)pyrrolidin-1-yl)-9-fluoro-3-methyl-7-oxo-2,3-dihydro-7H-[1,4]oxazino[2,3,4-ij]quinoline-6-carboxylic acid]","MIC, M6",[23]; [25],2
same,MIC,[23]; Klebsiella pneumoniae,2 µg/mL
same,MIC,[24]; Acinetobacter baumannii,8 µg/mL
same,"MIC, AYE",[24]; [25],8
